For 86 compounds, melting point results are on record in a melting point compilation (Tetko et al.; mined from patent text by program, amines drawn as free bases though some values may be those of a salt).

As a reminder, the melting point is the temperature, or range, at which the solid turns liquid.

Compound `C[C@@H](O)Cn1ncc2ccc(O)c([N+](=O)[O-])c21` registered a melting point of 70 to 74 °C.
`CCCCCCCCCCC(=O)N[C@H]1CCCNC(=O)C1`: the melting point lay within 91 to 92 °C.
Compound `COc1ccccc1[C@H](C)C(=O)N1C[C@@H]2[C@H](C1)C(c1ccccc1)(c1ccccc1)C[C@H](O)[C@@]2(O)c1ccccc1OC` gave a melting point of 178 to 180 °C.
The result for `CC(C)(C)c1cc(-c2nn(CCOC(=O)c3cccnc3)c3ncccc23)cc(C(C)(C)C)c1O` reads 134 to 136 °C; that for `COC(C)c1cccc2oc(C(=O)O)c(C)c12` (stereo unspecified), 113 to 115 °C.
With `N#Cc1cc(-c2ccccc2Cl)c[nH]c1=O`, the melting point lay in the range of 252 to 254 °C.
For the compound `CCC(CC)Oc1cc(C)nc2c1COCN2c1c(C)cc(Br)cc1C`, the melting point lay within 206 to 209 °C.
With `CCCCCCCCC=CCCCCCCCCCCCC(=O)NCCOC(C)=O`, the melting point was 51 °C.
Consider `CC(=O)NC(=C(C)C(=O)O)c1ccccc1`, for which the melting point was 190 °C.
The compound `CCOC(=O)c1nc(NC)sc1C(=O)C(C)Br` (stereo unspecified) came in with a melting point of 104 to 106 °C.
On to `CC1CCCC(Cc2c[nH]c3c(=O)[nH]c(N)nc23)C1` (stereo unspecified), for which the melting point was 282 °C.
To `CCC(CC)c1nn(-c2ccc(C(F)(F)F)nn2)cc1CCCOc1c(C)cccc1CC(=O)O` belongs 76 to 77 °C; to `Cc1ccc(-c2ccc(C(=O)c3ccccc3)cc2)cc1`, 124 to 125 °C; to `O=C(O)C1CCc2c(c3ccccc3n2C(=O)c2cccc(F)c2)C1` (stereo unspecified), 170 to 171 °C.
The compound `Cc1nc(-c2ccc3c(c2)CCCC3)c(CCC(=O)O)o1` gave a melting point of 135 to 136 °C.
To `C=C(Cc1ccc(Cl)cc1)C(=O)O` belongs 78 to 86 °C; to `CSc1nn(C)c(=O)n1-c1ccccc1Oc1ccccc1`, 129 to 130 °C.
The result for `CC1(C)CCCN(C(=O)CN(C(=O)CNC(=O)Nc2cccc(CO)c2)c2ccccc2)C1` reads 248 °C.
`COC(=O)c1ccc(CNC(=O)OCc2ccccc2)cc1O` had a melting point of 91 to 92 °C.
Consider `CNC(=O)NC(=O)C(CC1CCCC1)c1ccc(-c2cccc3ccccc23)cc1` (stereo unspecified), for which the melting point lay within 85 to 88 °C.
`CCOC(=O)c1c(S(=O)c2ccccc2)n(C2CC2)c2c(F)c(F)c(F)cc2c1=O` (stereo unspecified): the melting point lay within 190 to 191 °C.
The result for `O=C(O)c1cccc2nc3n(c12)CCC3` reads 310 to 312 °C; that for `CCc1cc2c(=O)n3cc(C(=O)O)ccc3nc2s1`, 255 to 257 °C; that for `COc1ccc2oc(=O)c(S(=O)(=O)Nc3ccc(Br)cc3)cc2c1`, 166 to 168 °C.
To `CN(C)c1nc2ncnc(NCc3ccco3)c2[nH]1` belongs 245 to 246 °C; to `COC(=O)CSc1nc(Oc2ccc(N3CCNCC3)cc2)ncc1[N+](=O)[O-]`, 193 to 195 °C.
On to `CCc1onc(-c2ccccc2)c1C(=O)NCCCCl`, for which the melting point lay within 75 to 76 °C.
`CNC(=O)c1cc(-c2ccc(S(C)=O)cc2)c(-c2ccc(F)cc2)s1` (stereo unspecified) registered a melting point of 218 to 220 °C.
The compound `CN(CCP(O)O)c1cc(Oc2ccc(C(F)(F)F)cc2Cl)ccc1[N+](=O)[O-]` displayed a melting point of 161 to 164 °C.
The result for `C#CC12CC3CC(CC(C3)C1)C2` reads 80 to 82 °C; that for `CCS(=O)(=O)Nc1cc2occc(=O)c2cc1Oc1ccccc1`, 216 to 218 °C; that for `CCOC(=O)c1c(C)nc(C)n1Cc1ccc2oc(-c3ccccc3-c3nnn(C(c4ccccc4)(c4ccccc4)c4ccccc4)n3)c(Br)c2c1`, 98 to 100 °C.
Take `O=C(c1ccccc1SSc1ccccc1C(=O)N1CCC(O)C1)N1CCC(O)C1` (stereo unspecified): the melting point was 168 to 172 °C.
For `NS(=O)(=O)c1ccc(NC(=O)NCCCCCCNC(=O)n2cc(F)c(=O)[nH]c2=O)cc1`, the melting point is 181 to 184 °C.
In turn, `CC(C)(C)c1cc(SC2CC(=O)N(C3CCCCC3)C2=O)cc(C(C)(C)C)c1O` (stereo unspecified) showed a melting point of 94 to 98 °C.
As to `OCc1ccc(Cl)cc1Cc1ccccc1`, the melting point was in the range of 46.5 to 49 °C.
With `Cc1nc(-n2cnn(Cc3ccc(F)cc3)c2=O)sc1C#N`, the melting point is 190 to 192 °C.
The compound `COC(=O)C(Cc1ccc([N+](=O)[O-])c(OCc2ccccc2)c1)(NC(=O)OC(C)(C)C)C(=O)OC` returned a melting point of 114 to 116 °C.
On to `N#CCc1ccc(-c2nc3ccccc3o2)cc1[N+](=O)[O-]`, for which the melting point turned out to be 203 °C.
Take `CCCCCCCCOc1cc2cc(CO)c(CO)c(-c3ccnc(Cl)c3)c2cc1OC`: the melting point was in the range of 98 to 102 °C.
Compound `CC(C)n1nc(-c2c(-c3ccccc3)nn3ccc(N4CCN(S(=O)(=O)c5ccccc5)CC4)cc23)ccc1=O` gave a melting point of 219 to 220 °C.
As for `CC(C)(O)c1ccc(C(Cc2ccc(F)cc2)C(=O)Nc2nc3ccccc3o2)cc1` (stereo unspecified), the melting point lay within 87 to 90 °C.
As to `CC(C)Cc1cc(OCCc2ccsc2)c2[nH]nc(Nc3nccs3)c2c1`, the melting point lay within 150 to 151 °C.
The result for `O=C1NCCSC1=NO` reads 233 to 235 °C.
Take `CCOc1cccc(C(COc2ccccc2)n2nc(C(=O)O)c3c2-c2ccc(OCc4cncnc4)cc2CC3)c1` (stereo unspecified): the melting point lay in the range of 190 to 192 °C.
Compound `O=C1Nc2c(C(F)(F)F)cccc2C12COc1cc3c(cc12)OCO3` (stereo unspecified) gave a melting point of 245 to 248 °C.
On to `CC(C)(C)C(=O)OCOC(=O)C(C)(C)n1nc2ccc(NCCCN3CCC(OC(c4ccccc4)c4ccccc4)CC3)nn2c1=O`, for which the melting point was found to be 162 °C.
Take `COC(=O)CCCCCCCCOC1OC(CO)C(O)C(O)C1NC(C)=O` (stereo unspecified): the melting point fell in the range of 178 to 180 °C.
The result for `CC(C)(C)OC(=O)N1CC(NC(=O)CNC(=NC(=O)OCc2ccc([N+](=O)[O-])cc2)NC(=O)OCc2ccc([N+](=O)[O-])cc2)C1` reads 99 to 101 °C; that for `O=C(CBr)Nc1ccc(O)cc1C(=O)O`, 213 to 215 °C.
On to `CCOC(=O)c1cnc2c3cc(OC)c(OC)cc3ccn2c1=O`, for which the melting point fell in the range of 264 to 265 °C.
To `Cc1cc(SCc2ccnc3c2nc(-c2ccc(C(F)(F)F)cc2)n3C)ccc1CCC(=O)O` belongs 89 to 91 °C.
The result for `C=CCN(CC=C)c1ccc(NCCO)cc1[N+](=O)[O-]` reads 166 to 170 °C; that for `OC(c1ccc(Cl)cc1)(c1ccc(Cl)cc1)c1nccn1Cc1ccccc1`, 167 to 168 °C; that for `Cc1cc(-c2c[nH]cn2)ccc1N=CNC#N`, 200 to 202 °C.
Compound `Fc1ccccc1-c1n[nH]c(-c2ccccc2C(F)(F)F)n1` yielded a melting point of 153 to 155 °C.
As to `C[C@@H]1S[C@@H](C(=O)Nc2ccc(CN3CCCC3)cc2)Cc2cc3c(cc2C1=O)OCO3`, the melting point was in the range of 186 to 188 °C.
In turn, `COc1cccc(C(=O)N2CCc3cc(OCc4ccccc4)c(OC)cc3C2=O)c1` yielded a melting point of 141 to 143 °C.
As for `Cc1cc(-n2ccnc2)c2cccc(OCc3c(Cl)ccc(S(=O)(=O)N4CCC[C@H]4C(=O)N(C)CCCN(C)C(=O)OC(C)(C)C)c3Cl)c2n1`, the melting point came out at 70 °C.
With `CCOc1nc2cccc(C(=O)OCOC(=O)C(C)(C)C)c2n1Cc1ccc(-c2ccccc2-c2nnn[nH]2)cc1`, the melting point was in the range of 104 to 106 °C.
With `COc1ccc(S(N)(=O)=O)cc1C(C)=O`, the melting point fell in the range of 203 to 206 °C.
In turn, `CCCCc1nc(Cl)c(C(N)=O)n1Cc1ccc(-c2ccccc2C(=O)O)cc1` returned a melting point of 200 to 202 °C.
The result for `CN1Cc2cccnc2N(c2ccccc2)C1=O` reads 172 to 173 °C; that for `NCC(O)c1cc(Cl)cc(Cl)c1` (stereo unspecified), 66 °C; that for `CCOC(=O)c1c2n(c3cc(N4CCN(CC(C)=O)CC4)c(F)cc3c1=O)C(C)S2` (stereo unspecified), 196 to 200 °C.
The result for `Clc1cccc(N2CCN(Cc3ccc4ccccc4c3)CC2)c1` reads 114 to 115 °C; that for `O=C(c1ccc(Cl)cc1)C(Oc1cccc(Cl)n1)n1cncn1` (stereo unspecified), 162 °C; that for `CSSc1ccc([N+](=O)[O-])cc1C(Cl)(Cl)Cl`, 76 °C.
The compound `CC=Cc1cccc2c(=O)c(C)c(-c3ccc(C(C)C)cc3)oc12` gave a melting point of 105 to 107 °C.
As to `CCC(C)c1ccccc1N` (stereo unspecified), the melting point lay in the range of 89 to 91 °C.
Compound `FC(F)Oc1ccc2nc(NC3=NCC4(CN5CCC4CC5)O3)sc2c1` (stereo unspecified) yielded a melting point of 223 to 225 °C.
`CC1(C)CC(=O)c2c(NCc3ccccn3)sc(-c3cc[nH]n3)c2C1` gave a melting point of 210 to 213 °C.
`O=C(O)c1cn(C2CC2)c2cc(Cl)c(F)c(Cl)c2c1=O` yielded a melting point of 277 to 278 °C.
`O=C(Nc1cccc2c(=O)cc(-c3nnn[nH]3)oc12)c1ccc2c(c1)CCC(COCc1ccccc1)O2` (stereo unspecified) returned a melting point of 214 to 216 °C.
Consider `O=C(O)c1cn(C2CC2)c2c(F)c(N3CCNCC3)c(F)cc2c1=O`, for which the melting point was above 270 °C.
Compound `O=C(c1ccccc1)N1CCC2CC(O)(c3ccc(F)cc3)CCC2C1` (stereo unspecified) displayed a melting point of 84 to 85 °C.
For the compound `CCCCC(=O)NCCc1c(OC)ccc2ccccc12`, the melting point lay within 69 to 75 °C.
`COc1c(NC(=O)c2c(F)cc(F)cc2F)cccc1C(=O)Nc1c(Cl)cc(C(F)(C(F)(F)F)C(F)(F)C(F)(F)F)cc1Br` (stereo unspecified): the melting point stood at 179 °C.
With `CC(C)[C@@H]1C[C@@H](CO)NC1=O`, the melting point was 55.9 °C.
As for `Cc1cc(F)ccc1-c1nc(NCC(F)(F)F)nc2c1ccc(=O)n2-c1ccccc1F`, the melting point fell in the range of 187 to 188 °C.
In turn, `CNC(=O)c1cc(C)ccc1Nc1nc(Nc2ccc3c(c2)CCN(CCOC)CC3)ncc1Cl` returned a melting point of 210 to 212 °C.
Compound `COc1cc2c(cc1OC)[C@H]1CCCC[C@H]1N=C2c1ccc(C(C)=NO)cc1` registered a melting point of 189 to 192 °C.
In turn, `O=c1[nH]c2ccc(C(F)(F)F)cc2c2c1c(=O)oc1ccc(Cl)cc12` had a melting point above 250 °C.
`Oc1cc(/C=C/c2ccccc2)cc(O)c1O` registered a melting point of 172 °C.
To `CCN(CC)c1ccc(/C=C/C(=O)CC(=O)/C=C/c2ccc3cc[nH]c3c2)c(OCc2ccccc2)c1` belongs 160 to 163 °C; to `CC(C)NC(=O)N1CCc2[nH]cnc2C1c1ccccn1` (stereo unspecified), 240 °C.
